Laboratory results published in article PMC9265830, “Purification and Identification of a Novel Angiotensin Converting Enzyme Inhibitory Peptide from the Enzymatic Hydrolysate of Lepidotrigla microptera” (Foods, 2022).
Entries after “also recorded” stand apart in the source; their conditions may differ. Where no end group is shown, it is not given here.

Key:
[1] = target: T1, ACE (Homo sapiens, UniProt P12821); test: Inhibitory kinetics study (Lineweaver–Burk plots); type: biochemical; conditions: for Vmax of the enzyme reaction: HHL 1-5 mM, Vmax without peptide 20 mM/min
T1 sequence (P12821 30-1306, species assumed): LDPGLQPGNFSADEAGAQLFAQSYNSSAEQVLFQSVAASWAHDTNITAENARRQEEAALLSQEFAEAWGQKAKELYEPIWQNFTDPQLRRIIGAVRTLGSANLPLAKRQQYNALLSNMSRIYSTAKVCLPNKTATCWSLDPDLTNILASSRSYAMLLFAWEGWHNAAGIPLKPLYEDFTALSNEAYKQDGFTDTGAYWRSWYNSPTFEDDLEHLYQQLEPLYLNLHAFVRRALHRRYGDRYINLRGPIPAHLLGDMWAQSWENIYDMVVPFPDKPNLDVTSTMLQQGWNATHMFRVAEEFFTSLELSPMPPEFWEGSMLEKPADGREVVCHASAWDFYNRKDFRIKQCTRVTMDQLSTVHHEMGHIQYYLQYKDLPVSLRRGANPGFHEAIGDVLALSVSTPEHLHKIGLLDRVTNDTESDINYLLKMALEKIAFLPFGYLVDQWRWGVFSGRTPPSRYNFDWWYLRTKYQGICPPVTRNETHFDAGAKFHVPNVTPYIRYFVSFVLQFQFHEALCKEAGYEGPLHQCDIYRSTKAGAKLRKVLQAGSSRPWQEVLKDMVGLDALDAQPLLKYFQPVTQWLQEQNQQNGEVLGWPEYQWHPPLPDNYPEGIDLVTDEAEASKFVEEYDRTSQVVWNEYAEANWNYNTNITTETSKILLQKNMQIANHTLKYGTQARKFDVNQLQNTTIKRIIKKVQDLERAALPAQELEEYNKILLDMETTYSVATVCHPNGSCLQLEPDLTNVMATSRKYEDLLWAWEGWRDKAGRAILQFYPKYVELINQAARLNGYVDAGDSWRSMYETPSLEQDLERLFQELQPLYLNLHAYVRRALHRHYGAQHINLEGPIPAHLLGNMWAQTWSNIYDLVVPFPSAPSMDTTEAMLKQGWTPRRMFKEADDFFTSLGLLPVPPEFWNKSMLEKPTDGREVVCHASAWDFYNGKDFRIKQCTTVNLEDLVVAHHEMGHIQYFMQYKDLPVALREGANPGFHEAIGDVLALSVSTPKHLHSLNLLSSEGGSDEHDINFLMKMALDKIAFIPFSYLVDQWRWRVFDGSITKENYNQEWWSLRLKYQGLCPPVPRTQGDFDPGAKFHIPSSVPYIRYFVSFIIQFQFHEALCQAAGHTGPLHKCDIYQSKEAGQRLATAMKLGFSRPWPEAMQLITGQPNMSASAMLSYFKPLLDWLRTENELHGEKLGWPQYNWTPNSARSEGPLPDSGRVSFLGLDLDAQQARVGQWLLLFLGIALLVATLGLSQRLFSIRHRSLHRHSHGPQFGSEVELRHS
Experimental: Different concentrations of ACE-inhibitory peptide (0, 60, and 120 μM) were mixed with various concentrations of HHL solution (1, 2, 3, 4 and 5 mM) and pre-incubated for 5 min at 37 °C. Then the reaction was initiated by adding 80 µL of ACE and terminated by adding 20 µL of 1 mol/L HCl. The Lineweaver–Burk plot of the reciprocal of the HHL concentration (1/[s]) and the HA production rate (1/[v]) were used to analyze the inhibitory kinetics of peptide.

[2] = Thermal stability of ACE inhibitory activity; type: physicochemical
Experimental: (§1) ACE-inhibitory activity was determined following the method of Cushman. The reaction system comprised a sample (10 μL), HHL (2.5 mM, 30 μL), and ACE solution (0.1 U/mL, 20 μL) in sodium borate buffer (pH 8.3, 0.3 M NaCl). The mixture of HHL and the sample was pre-incubated for 15 min at 37 °C before adding the ACE solution. The reaction was carried out for 40 min at 37 °C in a water bath and terminated by adding HCl (1 mol/L, 60 μL). Then 20 μL of the reaction mixture was injected into an HPLC system (Shimadzu, Japan) equipped with a C-18 column (150 × 4.6 mm, 5 μm). In order to detect the concentration of HA (hippuric acid), isocratic elution was performed for 25 min in 80% mobile phase A (0.05% Trifluoroacetic acid in H2O) and 20% mobile phase B (Acetonitrile) at a 0.8 mL/min flow rate, and the detection wavelength was 280 nm. The ACE-inhibitory activity was calculated according to the formula:ACE-inhibitory activity (%) = (A1 − A2)/A1(1) where A1 and A2 equal the peak areas of blank control and the sample, respectively.
The sample (0.2 mg/mL) was treated at various temperatures (20, 40, 60, 80, and 100 °C) for 1 h. After cooling the solution to indoor temperature (25 °C), the ACE inhibition activity was detected.

[3] = pH stability of ACE inhibitory activity; type: physicochemical; conditions: 0.2 mg/mL, 37 °C, 2 h, pH 3 to 11 (method: 2, 4, 6, 8, 10), readjusted to pH 7.0; read-out ACE inhibition
Experimental: as §1
The ACE-inhibitory peptide solution (0.2 mg/mL) was incubated at different pH levels (2, 4, 6, 8, and 10) at 37 °C for 2 h, and the pH value was adjusted by adding HCl (1 mol/L) and NaOH (1 mol/L). Before the ACE inhibition rate was determined, the pH value was adjusted to 7.0.

[4] = tested on: pepsin, pancreatin; test: Simulated gastrointestinal digestion; type: in vitro ADME; conditions: 0.2 mg/mL; pepsin 0.05% pH 2.0 2 h 37 °C, then pancreatin 0.05% pH 7.5 2 h 37 °C; read-out ACE inhibition
Experimental: as §1
Simulated gastrointestinal digestion of ACE-inhibitory peptides was conducted following the method of Lai et al. with slight modifications. […]

[5] = target: T1, ACE; test: ACE-inhibitory activity (HHL substrate, hippuric acid by HPLC); type: biochemical; conditions: ultrafiltration, Sephadex G-15 and prep-HPLC fractions; chemically synthesized peptides; read-out: IC50 (ACE inhibition) of fractions and synthesized peptides (converted)
Experimental: as §1

Vmax of the enzyme reaction ([1]; 60 μM peptide) | Vmax of the enzyme reaction ([1]; 120 μM peptide) | Inhibitory kinetic mechanism ([1]; Lineweaver–Burk plot) | ACE-inhibitory activity after heat treatment ([2]; 0.2 mg/mL, 1 h, temperature above 60 °C (up to 100 °C), read-out ACE inhibition) | ACE-inhibitory rate after heat treatment ([2]; 0.2 mg/mL, 1 h, temperature range 20 to 60 °C, read-out ACE inhibition) | Stability of ACE-inhibitory activity (abstract summary) ([2]; temperatures (<100 °C) and pH values (3.0–11.0)) | IC50 [5] | Molecule | ACE-inhibitory activity after pH treatment [3] | Relative ACE inhibition activity before and after digestion [4]
5 mM/min | 2.78 mM/min | noncompetitive | slightly decreased | remained relatively stable | stable |  | CC(C)C[C@H](NC(=O)CNC(=O)[C@H](C)NC(=O)[C@@H](NC(=O)[C@H](CC(C)C)NC(=O)[C@@H](N)CC(=O)O)[C@@H](C)O)C(=O)N[C@@H](CC(C)C)C(=O)N[C@@H](CCC(=O)O)C(=O)O [DLTAGLLE, Phe-Leu-Thr-Ala-Gly-Leu-Leu-Asp] | maintained high ACE-inhibitory activity at all pH values | retained after gastrointestinal digestion; also recorded: essentially unchanged
 |  |  |  |  |  | 214 µM | YLTLFLLT [YLTLFLLT, Tyr-Leu-Thr-Leu-Phe-Leu-Leu-Thr] |  | 
